Test results as given in US10251843B2, “Crosslinked nanoparticle composition” (priority 2015, dated 2019).

What was measured:
[1] = mice, reported; cited from earlier work
[2] = In vivo pharmacokinetics, serum amoxicillin after oral gavage; settings: ICR mice
Description: The experiments were performed on male and female ICR mice (6-8 weeks) to evaluate the amoxicillin concentration in serum. […] Each testing group contained 10 mice (five male and five female). The concentration of amoxicillin in each collected serum sample was determined by HPLC.

In the case of CC1(C)S[C@@H]2[C@H](NC(=O)[C@H](N)c3ccc(O)cc3)C(=O)N2[C@H]1C(=O)O.O.O.O [free amoxicillin, (2S,5R,6R)-6-[(R)-(−)-2-amino-2-(p-hydroxyphenyl)acetamido]-3,3-dimethyl-7-oxo-4-thia-1-azabicyclo[3.2.0]heptane-2-carboxylic acid trihydrate], the “plasma half-life of amoxicillin” value [1] is listed as “about 40 minutes”, the “time at which serum concentration of amoxicillin peaked” value ([2]; 2 mg amoxicillin) is listed as 15 min and the “serum concentration as % of the peak value” ([2]; after 1 hour) is listed as “below 50%”. The “serum concentration as % of the peak value” ([2]; after 2 hours) was “below 20%” and the “area under the curve (total measured amount of drug in the circulation)” value ([2]; compared with the nanoparticle formulation) was “smaller area”.
